Target: hPHT1 (human peptide/histidine transporter 1, SLC15A4) (Homo sapiens, UniProt Q8N697, L14A/L15A/L318A/V319A)
Assay: inhibition of MDP uptake in hPHT1mut cells at […], mock-subtracted
Assay type: cell-based
Conditions: read-out: % inhibition at 2 mM

Sequence of hPHT1 (human peptide/histidine transporter 1, SLC15A4) (Q8N697 whole entry L14A/L15A/L318A/V319A): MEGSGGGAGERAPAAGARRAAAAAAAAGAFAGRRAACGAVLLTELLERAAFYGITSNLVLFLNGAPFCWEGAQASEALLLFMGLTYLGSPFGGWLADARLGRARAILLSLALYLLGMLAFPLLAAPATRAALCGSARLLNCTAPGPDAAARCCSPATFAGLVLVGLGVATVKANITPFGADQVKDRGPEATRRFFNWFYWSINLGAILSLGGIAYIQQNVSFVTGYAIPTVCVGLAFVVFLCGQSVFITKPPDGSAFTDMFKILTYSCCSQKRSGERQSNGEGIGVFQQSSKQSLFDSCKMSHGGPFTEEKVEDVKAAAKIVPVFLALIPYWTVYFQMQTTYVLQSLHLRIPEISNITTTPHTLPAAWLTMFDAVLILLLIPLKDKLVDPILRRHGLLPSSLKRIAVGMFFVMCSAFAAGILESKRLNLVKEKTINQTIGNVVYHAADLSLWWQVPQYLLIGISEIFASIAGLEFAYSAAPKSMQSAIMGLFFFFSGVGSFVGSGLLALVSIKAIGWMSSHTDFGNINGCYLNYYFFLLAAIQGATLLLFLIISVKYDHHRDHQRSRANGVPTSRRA

In the case of C[C@H](CS)C(=O)N1CCC[C@H]1C(=O)O [captopril], the inhibition at 2000 µM is reported as 70 to 85%.
Work on CC1=C(C(=O)O)N2C(=O)[C@@H](NC(=O)[C@H](N)c3ccc(O)cc3)[C@H]2SC1 [cefadroxil] yielded an inhibition at 2000 µM of 70 to 85%.
For CC1=C(C(=O)O)N2C(=O)[C@@H](NC(=O)[C@H](N)C3=CCC=CC3)[C@H]2SC1 [cephradine], the inhibition at 2000 µM was 70 to 85%.
NCCCC[C@H](N[C@@H](CCc1ccccc1)C(=O)O)C(=O)N1CCC[C@H]1C(=O)O [lisinopril] gave an inhibition at 2000 µM of 70 to 85%.

Reference: article PMC5826766 (Molecular pharmaceutics, 2018)
